From patent US20240182785A1, “COMPOUND, COMPOSITION, CURED PRODUCT, OPTICALLY ANISOTROPIC BODY, OPTICAL ELEMENT, AND LIGHT GUIDE ELEMENT” (FUJIFILM Corporation, priority 2021, published 2024)

Assays:
Format in all cases: physicochemical
[1] = Evaluation of solubility in cyclopentanone; details: precipitation concentration in cyclopentanone at 25° C.
Method: The solubility of each of the compounds (the compounds A-1 to A-11 and the compounds B-1 and B-2) in cyclopentanone was evaluated.

[2] = Evaluation of light resistance of optically anisotropic layer (Super Xenon Weather Meter); details: rate of change in Re of cured layer (25 parts compound, 75 parts L-1), 5 million lx, 50 hours, 63° C., 50% RH, oxygen-blocking
Method: (§1) As shown below, the light resistance and the durability of the optically anisotropic layer produced using the composition containing each of the compounds A-1 to A-11 and the compounds B-1 and B-2 were evaluated.
(§2) A coating liquid having the following composition was prepared and applied by spin-coating, onto a rubbing-treated glass attached with an alignment film. Each composition was irradiated with ultraviolet rays of 300 mJ/cm^2 through a filter that cuts light having a wavelength of 350 nm or less on a hot plate which had been heated to a temperature at which a nematic phase is shown, whereby an optically anisotropic layer for a light resistance/durability test was produced.
(§3) The polymerizable liquid crystal compound L-1 is a mixture obtained by mixing at a
(§4) ratio of the following L-1-1/L-1-2/L-1-3=84/14/2 (in terms of mass ratio).
The produced optically anisotropic layers for light resistance/durability tests were irradiated with light using a Super Xenon Weather Meter SX75 manufactured by Suga Test Instruments Co., Ltd. Using KU-1000100 manufactured by King Seisakusho Co., Ltd. as a UV cut filter, a light resistance test was carried out by irradiation with 5 million lx of light for 50 hours under an oxygen-blocking condition. The temperature of the specimen to be tested (the temperature inside the test device) was set to 63° C. The relative humidity in the test device was 50% RH.
The Re of the optically anisotropic layer before and after the light resistance test was measured, the light resistance in a case where the rate of change in Re described below was less than 10% was evaluated as A, and the light resistance in a case where the rate of change in Re was 10% or more was evaluated as B. The smaller the rate of change in Re, the more excellent the light resistance.
(§5) Rate of change in Re (%)=[100×{|(Re after test)−(Re before test)|}/(Re before test)]
(§6) Re was measured with Axoscan manufactured by Axometrics Inc. at a wavelength of 550 nm, and the measurement temperature was set to room temperature.

[3] = Evaluation of liquid crystallinity (hot stage, polarization microscope); parameters: key: A case of having liquid crystallinity was evaluated as A; a case of having no liquid crystallinity was evaluated as B; details: heated on a hot stage
Method: The respective compounds (the compounds A-1 to A-11 and the compounds B-1 and B-2) were heated on a hot stage and observed with a polarization microscope, and the phase transition temperature was measured to evaluate the presence or absence of the liquid crystallinity. A case of having liquid crystallinity was evaluated as A, and a case of having no liquid crystallinity was evaluated as B. The results are shown in Table 1.
Since the compound A-8 has melting points of 200° C. or higher and undergoes a polymerization reaction during heating, liquid crystallinity could not be evaluated.

[4] = Evaluation of durability of optically anisotropic layer (moisture-heat resistance test); details: rate of change in Re of cured layer (25 parts compound, 75 parts L-1), 136 hours at 100° C., humidity 95%
Method: as §1, §2, §3, §4, §5, §6
The produced optically anisotropic layer was allowed to be left for 136 hours at 100° C. and a humidity of 95%, whereby a moisture-heat resistance test was carried out. The rate of change in Re before and after the durability test was evaluated, the durability in a case where the rate of change in Re was less than 10% was evaluated as A, and the durability in a case where the rate of change in Re was 10% or more was evaluated as B. The smaller the rate of change in Re, the more excellent the durability.

[5] = Measurement of Δn (refractive index anisotropy), wedge-shaped liquid crystal cell; details: 550 nm, 30° C. or lower limit temperature of nematic phase +0 to 10° C.; some compounds extrapolated from 1/2 mixture with L-1-1
Method: The Δn of each of the compounds (the compounds A-1 to A-11 and the compounds B-1 and B-2), which are the compounds to be measured, was measured by a method using a wedge-shaped liquid crystal cell described on page 202 in the Liquid crystal handbook (edited by the liquid crystal handbook editorial board, published by Maruzen Co., Ltd., 2000). Δn was defined as a measured value at a wavelength of 550 nm at 30° C. or the lower limit temperature of the nematic phase +0° C. to 10° C. In a case of a compound which is liable to crystallize or a compound having no liquid crystallinity, evaluation was carried out using a mixture thereof with the other liquid crystal compound, and Δn was estimated from the extrapolated value of the measured value thereof. The following L-1-1 was used as the other liquid crystal compound. As the above mixture, a mixture obtained by mixing at a ratio of the compound to be measured/the L-1-1=1/2 (in terms of mass ratio) was used.
A case where Δn was 0.40 or more was evaluated as A, a case where Δn was 0.35 or more and less than 0.40 was evaluated as B, a case where Δn was 0.30 or more and less than 0.35 was evaluated as C, and a case where Δn was less than 0.30 was evaluated as D. The results are shown in Table 1.

- Liquid crystallinity [3]: A
SMILES: C=CC(=O)OCCCCSc1nc2ccc(C#Cc3ccc(OCc4ccc5cc(C#Cc6ccc7nc(SCCCCOC(=O)C=C)sc7c6)ccc5c4)c(C(=O)OC)c3)cc2s1 [Compound A-9]
- Solubility [1]: B (the solubility in a case where the precipitation concentration was less than 5% by mass was evaluated as B)
- Light resistance [2]: B (the light resistance in a case where the rate of change in Re was 10% or more was evaluated as B)
- Durability [4]: A (the durability in a case where the rate of change in Re was less than 10% was evaluated as A)
- Δn [5]: A (A case where Δn was 0.40 or more was evaluated as A)
